{"source": "ChEMBL document CHEMBL5705893", "about": "“Targeting the mitotic checkpoint for cancer therapy with NMS-P715, an inhibitor of MPS1 kinase” (Cancer Res, 2010)", "key": {"[1]": {"biological_target": "ALK tyrosine kinase receptor (Homo sapiens, UniProt Q9UM73)", "sequence (Q9UM73 whole entry)": "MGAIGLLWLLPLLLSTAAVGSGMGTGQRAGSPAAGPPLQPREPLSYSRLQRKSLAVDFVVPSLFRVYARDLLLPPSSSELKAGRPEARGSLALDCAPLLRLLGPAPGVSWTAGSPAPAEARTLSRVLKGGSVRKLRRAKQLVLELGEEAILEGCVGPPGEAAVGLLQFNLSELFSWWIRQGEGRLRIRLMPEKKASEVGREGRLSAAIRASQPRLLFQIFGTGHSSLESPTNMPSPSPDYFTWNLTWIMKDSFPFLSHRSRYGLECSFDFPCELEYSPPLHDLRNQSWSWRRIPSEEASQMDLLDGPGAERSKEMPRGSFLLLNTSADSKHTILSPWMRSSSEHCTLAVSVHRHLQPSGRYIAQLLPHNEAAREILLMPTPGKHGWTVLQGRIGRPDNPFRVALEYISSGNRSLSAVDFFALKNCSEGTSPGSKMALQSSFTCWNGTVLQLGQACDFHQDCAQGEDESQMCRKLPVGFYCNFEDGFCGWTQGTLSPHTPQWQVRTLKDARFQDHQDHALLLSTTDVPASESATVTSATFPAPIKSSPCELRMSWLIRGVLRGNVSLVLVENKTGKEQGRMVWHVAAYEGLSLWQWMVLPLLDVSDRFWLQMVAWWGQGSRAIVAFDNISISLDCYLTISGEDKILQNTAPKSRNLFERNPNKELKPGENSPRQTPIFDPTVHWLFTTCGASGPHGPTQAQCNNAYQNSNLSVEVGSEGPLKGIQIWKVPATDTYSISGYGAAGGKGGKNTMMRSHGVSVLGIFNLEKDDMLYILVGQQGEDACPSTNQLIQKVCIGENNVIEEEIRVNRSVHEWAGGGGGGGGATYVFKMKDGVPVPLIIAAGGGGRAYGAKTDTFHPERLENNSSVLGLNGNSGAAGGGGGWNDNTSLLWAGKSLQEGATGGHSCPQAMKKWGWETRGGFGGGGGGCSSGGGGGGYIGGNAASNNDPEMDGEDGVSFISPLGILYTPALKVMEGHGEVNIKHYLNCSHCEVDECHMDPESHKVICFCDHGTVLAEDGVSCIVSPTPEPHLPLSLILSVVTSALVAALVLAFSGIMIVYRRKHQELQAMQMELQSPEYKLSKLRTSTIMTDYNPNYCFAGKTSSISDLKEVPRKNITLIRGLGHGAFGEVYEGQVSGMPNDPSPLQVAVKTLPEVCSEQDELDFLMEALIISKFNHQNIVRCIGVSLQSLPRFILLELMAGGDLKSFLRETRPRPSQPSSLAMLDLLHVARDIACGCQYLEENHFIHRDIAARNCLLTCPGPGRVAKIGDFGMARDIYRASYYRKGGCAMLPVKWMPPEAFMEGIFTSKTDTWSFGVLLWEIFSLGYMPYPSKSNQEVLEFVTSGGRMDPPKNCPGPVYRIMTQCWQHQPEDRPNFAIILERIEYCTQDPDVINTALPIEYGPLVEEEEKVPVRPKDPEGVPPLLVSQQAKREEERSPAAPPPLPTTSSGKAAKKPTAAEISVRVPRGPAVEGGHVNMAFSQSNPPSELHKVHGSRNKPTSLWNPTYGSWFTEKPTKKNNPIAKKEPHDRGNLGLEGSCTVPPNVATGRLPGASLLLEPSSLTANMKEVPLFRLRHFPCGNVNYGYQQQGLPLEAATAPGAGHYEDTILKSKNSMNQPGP", "assay": "Inhibition of recombinant ALK (unknown origin)"}, "[2]": {"biological_target": "Protein-tyrosine kinase 6 (Homo sapiens, UniProt Q13882)", "sequence (Q13882 whole entry)": "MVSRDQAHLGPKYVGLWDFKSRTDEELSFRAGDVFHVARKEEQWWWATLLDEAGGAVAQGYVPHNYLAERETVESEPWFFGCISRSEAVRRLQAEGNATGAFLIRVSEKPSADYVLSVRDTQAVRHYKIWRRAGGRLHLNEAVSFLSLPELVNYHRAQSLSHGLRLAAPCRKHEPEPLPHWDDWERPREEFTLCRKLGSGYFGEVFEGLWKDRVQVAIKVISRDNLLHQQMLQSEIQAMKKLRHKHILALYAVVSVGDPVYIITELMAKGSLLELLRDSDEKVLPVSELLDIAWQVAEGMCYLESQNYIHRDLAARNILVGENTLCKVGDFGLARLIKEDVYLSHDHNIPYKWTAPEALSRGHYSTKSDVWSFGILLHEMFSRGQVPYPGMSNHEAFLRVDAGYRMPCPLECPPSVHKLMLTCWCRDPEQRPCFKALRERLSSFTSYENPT", "assay": "Inhibition of recombinant BRK (unknown origin)"}, "[3]": {"biological_target": "Mitotic checkpoint serine/threonine-protein kinase BUB1 (Homo sapiens, UniProt O43683)", "assay": "Inhibition of recombinant BUB1 (unknown origin)"}, "[4]": {"assay": "Inhibition of recombinant CDK2/CYCA (unknown origin)", "design": "species or system Homo sapiens"}, "[5]": {"biological_target": "Eukaryotic elongation factor 2 kinase (Homo sapiens, UniProt O00418)", "sequence (O00418 whole entry)": "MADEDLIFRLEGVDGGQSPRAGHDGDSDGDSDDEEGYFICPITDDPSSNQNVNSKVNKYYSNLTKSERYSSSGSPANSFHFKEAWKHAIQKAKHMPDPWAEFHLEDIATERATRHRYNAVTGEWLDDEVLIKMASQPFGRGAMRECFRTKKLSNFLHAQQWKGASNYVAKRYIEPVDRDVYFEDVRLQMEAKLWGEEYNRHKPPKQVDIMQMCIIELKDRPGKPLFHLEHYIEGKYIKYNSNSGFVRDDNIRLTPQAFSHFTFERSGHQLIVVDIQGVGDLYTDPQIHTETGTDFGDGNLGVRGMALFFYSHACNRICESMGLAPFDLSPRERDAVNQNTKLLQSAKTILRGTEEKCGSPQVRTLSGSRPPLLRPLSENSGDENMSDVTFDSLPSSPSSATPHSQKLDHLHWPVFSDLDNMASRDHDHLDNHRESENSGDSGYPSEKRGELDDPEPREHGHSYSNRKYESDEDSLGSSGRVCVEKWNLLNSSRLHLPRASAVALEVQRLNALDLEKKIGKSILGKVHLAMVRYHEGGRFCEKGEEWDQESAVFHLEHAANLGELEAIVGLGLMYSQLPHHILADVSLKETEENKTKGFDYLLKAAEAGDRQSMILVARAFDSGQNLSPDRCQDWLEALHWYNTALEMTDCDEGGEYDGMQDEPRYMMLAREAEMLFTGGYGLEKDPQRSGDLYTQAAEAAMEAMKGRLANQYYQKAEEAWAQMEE", "assay": "Inhibition of recombinant EEF2K (unknown origin)"}, "[6]": {"biological_target": "Receptor-type tyrosine-protein kinase FLT3 (Homo sapiens, UniProt P36888)", "assay": "Inhibition of recombinant FLT3 (unknown origin)"}, "[7]": {"biological_target": "MAP kinase-activated protein kinase 2 (Homo sapiens, UniProt P49137)", "sequence (P49137 whole entry)": "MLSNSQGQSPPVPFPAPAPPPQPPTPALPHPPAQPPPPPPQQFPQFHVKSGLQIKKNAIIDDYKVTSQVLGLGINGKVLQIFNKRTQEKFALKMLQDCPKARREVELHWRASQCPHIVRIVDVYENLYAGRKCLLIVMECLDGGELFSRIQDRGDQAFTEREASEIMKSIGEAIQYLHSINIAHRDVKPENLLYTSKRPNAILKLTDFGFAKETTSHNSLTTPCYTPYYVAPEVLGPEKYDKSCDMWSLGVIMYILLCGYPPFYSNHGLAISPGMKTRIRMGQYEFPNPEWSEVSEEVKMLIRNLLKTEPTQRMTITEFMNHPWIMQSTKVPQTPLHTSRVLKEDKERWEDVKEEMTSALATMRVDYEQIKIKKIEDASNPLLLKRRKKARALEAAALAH", "assay": "Inhibition of recombinant MAPKAPK2 (unknown origin)"}, "[8]": {"biological_target": "Serine/threonine-protein kinase 26 (Homo sapiens, UniProt Q9P289)", "sequence (Q9P289 whole entry)": "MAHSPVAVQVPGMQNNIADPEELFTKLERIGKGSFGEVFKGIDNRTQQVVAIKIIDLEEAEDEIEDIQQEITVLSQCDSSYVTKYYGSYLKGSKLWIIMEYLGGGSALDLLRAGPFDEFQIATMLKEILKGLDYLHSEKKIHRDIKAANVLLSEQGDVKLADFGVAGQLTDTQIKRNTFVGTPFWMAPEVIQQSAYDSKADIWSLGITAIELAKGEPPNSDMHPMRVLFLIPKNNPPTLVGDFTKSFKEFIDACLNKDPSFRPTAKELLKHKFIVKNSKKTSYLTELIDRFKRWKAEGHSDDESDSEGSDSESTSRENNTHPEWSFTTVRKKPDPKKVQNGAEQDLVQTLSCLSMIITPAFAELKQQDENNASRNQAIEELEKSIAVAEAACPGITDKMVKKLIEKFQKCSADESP", "assay": "Inhibition of recombinant MST4 (unknown origin)"}, "[9]": {"biological_target": "Serine/threonine-protein kinase Nek6 (Homo sapiens, UniProt Q9HC98)", "sequence (Q9HC98 whole entry)": "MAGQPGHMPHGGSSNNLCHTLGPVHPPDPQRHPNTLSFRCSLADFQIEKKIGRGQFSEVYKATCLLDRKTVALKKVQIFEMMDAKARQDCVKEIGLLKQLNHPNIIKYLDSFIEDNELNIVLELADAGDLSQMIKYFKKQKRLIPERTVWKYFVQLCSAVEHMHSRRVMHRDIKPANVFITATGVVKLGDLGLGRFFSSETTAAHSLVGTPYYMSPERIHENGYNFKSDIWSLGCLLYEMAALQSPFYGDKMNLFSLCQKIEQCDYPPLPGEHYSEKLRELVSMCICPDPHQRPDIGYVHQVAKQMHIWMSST", "assay": "Inhibition of recombinant NEK6 (unknown origin)"}, "[10]": {"biological_target": "Serine/threonine-protein kinase PLK2 (Homo sapiens, UniProt Q9NYY3)", "assay": "Inhibition of recombinant PLK2 (unknown origin)"}, "MDA-MB-435": {"test_system": "MDA-MB-435", "assay": "Antiproliferative activity against human MDA-MB-435 cells assessed as inhibition of cell growth incubated for 72 hrs by celltiter-glo assay", "type": "functional, cell-based", "details": "MDA-MB-435, 72 h"}, "NCI/ADR-RES": {"test_system": "NCI/ADR-RES", "assay": "Antiproliferative activity against human NCI-ADR-RES cells assessed as inhibition of cell growth incubated for 72 hrs by celltiter-glo assay", "type": "functional, cell-based"}, "COLO 320": {"test_system": "COLO 320", "assay": "Antiproliferative activity against human COLO 320 cells assessed as inhibition of cell growth incubated for 72 hrs by celltiter-glo assay", "type": "functional, cell-based", "details": "COLO 320, 72 h"}, "SW480": {"test_system": "SW480", "assay": "Antiproliferative activity against human SW480 cells assessed as inhibition of cell growth incubated for 72 hrs by celltiter-glo assay", "type": "functional, cell-based", "details": "SW480, 72 h"}, "LoVo": {"test_system": "LoVo", "assay": "Antiproliferative activity against human LoVo cells assessed as inhibition of cell growth incubated for 72 hrs by celltiter-glo assay", "type": "functional, cell-based"}, "SW948": {"test_system": "SW948", "assay": "Antiproliferative activity against human SW948 cells assessed as inhibition of cell growth incubated for 72 hrs by celltiter-glo assay", "type": "functional, cell-based", "details": "SW948, 72 h"}, "HCT-116": {"test_system": "HCT-116", "assay": "Antiproliferative activity against human HCT-116 cells assessed as inhibition of cell growth incubated for 72 hrs by celltiter-glo assay", "type": "functional, cell-based", "details": "HCT-116, 72 h"}, "SW1417": {"test_system": "SW1417", "assay": "Antiproliferative activity against human SW1417 cells assessed as inhibition of cell growth incubated for 72 hrs by celltiter-glo assay", "type": "functional, cell-based", "details": "SW1417, 72 h"}, "COLO-741": {"test_system": "COLO-741", "assay": "Antiproliferative activity against human COLO-741 cells assessed as inhibition of cell growth incubated for 72 hrs by celltiter-glo assay", "type": "functional, cell-based", "details": "COLO-741, 72 h"}, "T84": {"test_system": "T84", "assay": "Antiproliferative activity against human T84 cells assessed as inhibition of cell growth incubated for 72 hrs by celltiter-glo assay", "type": "functional, cell-based", "details": "T84, 72 h"}, "MOLT-4": {"test_system": "MOLT-4", "assay": "Antiproliferative activity against human MOLT-4 cells assessed as inhibition of cell growth incubated for 72 hrs by celltiter-glo assay", "type": "functional, cell-based", "details": "MOLT-4, 72 h"}, "KG-1": {"test_system": "KG-1", "assay": "Antiproliferative activity against human KG-1 cells assessed as inhibition of cell growth incubated for 72 hrs by celltiter-glo assay", "type": "functional, cell-based", "details": "KG-1, 72 h"}, "[11]": {"assay": "Antiproliferative activity against human PL21 cells assessed as inhibition of cell growth incubated for 72 hrs by celltiter-glo assay", "type": "functional, cell-based", "details": "PL-21, 72 h"}, "SET-2": {"test_system": "SET-2", "assay": "Antiproliferative activity against human SET2 cells assessed as inhibition of cell growth incubated for 72 hrs by celltiter-glo assay", "type": "functional, cell-based", "details": "SET-2, 72 h"}, "NCI-H522": {"test_system": "NCI-H522", "assay": "Antiproliferative activity against human NCI-H522 cells assessed as inhibition of cell growth incubated for 72 hrs by celltiter-glo assay", "type": "functional, cell-based", "details": "NCI-H522, 72 h"}, "NCI-H2228": {"test_system": "NCI-H2228", "assay": "Antiproliferative activity against human NCI-H2228 cells assessed as inhibition of cell growth incubated for 72 hrs by celltiter-glo assay", "type": "functional, cell-based", "details": "NCI-H2228, 72 h"}, "HOP-62": {"test_system": "HOP-62", "assay": "Antiproliferative activity against human HOP-62 cells assessed as inhibition of cell growth incubated for 72 hrs by celltiter-glo assay", "type": "functional, cell-based", "details": "HOP-62, 72 h"}, "SUD4": {"test_system": "SUD4", "assay": "Antiproliferative activity against human SU-DHL-4 cells assessed as inhibition of cell growth incubated for 72 hrs by celltiter-glo assay", "type": "functional, cell-based", "details": "SU-DHL-4, 72 h"}, "SR": {"test_system": "SR", "assay": "Antiproliferative activity against human SR cells assessed as inhibition of cell growth incubated for 72 hrs by celltiter-glo assay", "type": "functional, cell-based"}, "A-375": {"test_system": "A-375", "assay": "Antiproliferative activity against human A-375 cells assessed as inhibition of cell growth incubated for 72 hrs by celltiter-glo assay", "type": "functional, cell-based", "details": "A-375, 72 h"}, "MeWo": {"test_system": "MeWo", "assay": "Antiproliferative activity against human MeWo cells assessed as inhibition of cell growth incubated for 72 hrs by celltiter-glo assay", "type": "functional, cell-based"}, "[12]": {"assay": "Antiproliferative activity against human RPMI 8226/ADR cells assessed as inhibition of cell growth incubated for 72 hrs by celltiter-glo assay", "type": "functional, cell-based"}, "OPM-2": {"test_system": "OPM-2", "assay": "Antiproliferative activity against human OPM-2 cells assessed as inhibition of cell growth incubated for 72 hrs by celltiter-glo assay", "type": "functional, cell-based", "details": "OPM-2, 72 h"}, "786-0": {"test_system": "786-0", "assay": "Antiproliferative activity against human 786-0 cells assessed as inhibition of cell growth incubated for 72 hrs by celltiter-glo assay", "type": "functional, cell-based", "details": "786-0, 72 h"}, "[13]": {"assay": "Antiproliferative activity against human NPA cells assessed as inhibition of cell growth incubated for 72 hrs by celltiter-glo assay", "type": "functional, cell-based"}, "U2OS [14]": {"test_system": "U2OS", "assay": "Induction of mitotic arrest in human U2OS cells expressing YFP-alpha-tubulin assessed as mitotic index at 1 micromol/L in presence of MG132 by time-lapse microscopic analysis", "type": "functional, cell-based", "details": "dose 1.0 µmol/L"}, "HeLa [15]": {"test_system": "HeLa", "assay": "Induction of mitotic arrest in human nocodazole-arrested HeLa cells assessed as delocalization of borealin at 1 micromol/L in presence of MG132", "type": "functional, cell-based", "details": "dose 1.0 µmol/L"}, "HeLa [16]": {"test_system": "HeLa", "assay": "Effect on CENPB level in human nocodazole-arrested HeLa cells at 1 micromol/L in presence of MG132", "type": "functional, cell-based", "details": "dose 1.0 µmol/L"}, "HeLa [17]": {"test_system": "HeLa", "assay": "Inhibition of cdc20-BUB3 protein-protein interaction in human nocodazole arrested HeLa cells by Coimmunoprecipitation analysis", "type": "cell-based"}, "A2780": {"test_system": "A2780", "assay": "Cell cycle arrest in human A2780 cells assessed as accumulation of cells at G2/M phase at 0.2 to 1 micromol/L incubated for 24 hrs by FACS/PI staining based flow cytometric analysis", "type": "functional", "details": "dose 0.2-1 µmol/L"}, "U2OS [18]": {"test_system": "U2OS", "assay": "Induction of mitotic arrest in human U2OS cells at 1 micromol/L incubated for 86 hrs by time-lapse microscopic analysis", "type": "functional, cell-based", "details": "dose 1.0 µmol/L"}, "U2OS [19]": {"test_system": "U2OS", "assay": "Cytotoxicity against human U2OS cells expressing YFP-alpha tubulin assessed as cell death incubated for 86 hrs", "type": "functional, cell-based"}, "[20]": {"biological_target": "Cyclin-dependent kinase 5/CDK5 activator 1 (Homo sapiens, UniProt Q00535)", "sequence (Q00535 whole entry)": "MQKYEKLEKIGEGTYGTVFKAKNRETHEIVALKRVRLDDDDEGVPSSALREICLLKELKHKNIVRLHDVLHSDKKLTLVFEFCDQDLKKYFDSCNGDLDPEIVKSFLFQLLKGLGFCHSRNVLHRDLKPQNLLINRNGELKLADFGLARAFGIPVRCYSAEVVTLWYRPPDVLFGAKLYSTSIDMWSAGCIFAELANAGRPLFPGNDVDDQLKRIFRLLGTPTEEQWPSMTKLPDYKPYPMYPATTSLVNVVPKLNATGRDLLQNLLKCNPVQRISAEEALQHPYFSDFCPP", "sequence (Q15078 whole entry, further chain)": "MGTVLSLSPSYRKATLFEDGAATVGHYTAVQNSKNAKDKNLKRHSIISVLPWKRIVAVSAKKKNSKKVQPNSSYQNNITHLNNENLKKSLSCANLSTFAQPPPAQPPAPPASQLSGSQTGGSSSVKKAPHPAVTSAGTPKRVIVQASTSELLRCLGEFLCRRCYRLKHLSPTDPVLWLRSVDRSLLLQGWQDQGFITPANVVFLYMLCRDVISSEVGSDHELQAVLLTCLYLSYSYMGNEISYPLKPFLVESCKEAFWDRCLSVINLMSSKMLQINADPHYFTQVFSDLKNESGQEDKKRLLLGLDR", "description": "Inhibition of recombinant CDK5/P25 (unknown origin)"}}, "note": "The source made the active and inactive calls. No cut-off for these calls is given here.", "data": [{"compound": "CCc1cccc(CC)c1NC(=O)c1nn(C)c2c1CCc1cnc(Nc3ccc(C(=O)NC4CCN(C)CC4)cc3OC(F)(F)F)nc1-2", "values": [{"measurement": "IC50", "setting": "[1]", "value": "> 10000", "unit": "nM"}, {"measurement": "IC50", "setting": "[2]", "value": "> 10000", "unit": "nM"}, {"measurement": "IC50", "setting": "[3]", "value": "> 10000", "unit": "nM"}, {"measurement": "IC50", "setting": "[4]", "value": "> 10000", "unit": "nM"}, {"measurement": "IC50", "setting": "[5]", "value": "> 10000", "unit": "nM"}, {"measurement": "IC50", "setting": "[6]", "value": "> 10000", "unit": "nM"}, {"measurement": "IC50", "setting": "[7]", "value": "> 10000", "unit": "nM"}, {"measurement": "IC50", "setting": "[8]", "value": "> 10000", "unit": "nM"}, {"measurement": "IC50", "setting": "[9]", "value": 6020, "unit": "nM"}, {"measurement": "IC50", "setting": "[10]", "value": "> 10000", "unit": "nM"}, {"measurement": "IC50", "setting": "MDA-MB-435", "value": 1960, "unit": "nM"}, {"measurement": "IC50", "setting": "NCI/ADR-RES", "value": 2480, "unit": "nM"}, {"measurement": "IC50", "setting": "COLO 320", "value": 1280, "unit": "nM"}, {"measurement": "IC50", "setting": "SW480", "value": 1300, "unit": "nM"}, {"measurement": "IC50", "setting": "LoVo", "value": 1870, "unit": "nM"}, {"measurement": "IC50", "setting": "SW948", "value": 1960, "unit": "nM"}, {"measurement": "IC50", "setting": "HCT-116", "value": 2040, "unit": "nM"}, {"measurement": "IC50", "setting": "SW1417", "value": 8840, "unit": "nM"}, {"measurement": "IC50", "setting": "COLO-741", "value": 10000, "unit": "nM"}, {"measurement": "IC50", "setting": "T84", "value": 10000, "unit": "nM"}, {"measurement": "IC50", "setting": "MOLT-4", "value": 1040, "unit": "nM"}, {"measurement": "IC50", "setting": "KG-1", "value": 2960, "unit": "nM"}, {"measurement": "IC50", "setting": "[11]", "value": 2960, "unit": "nM"}, {"measurement": "IC50", "setting": "SET-2", "value": 10000, "unit": "nM"}, {"measurement": "IC50", "setting": "NCI-H522", "value": 1200, "unit": "nM"}, {"measurement": "IC50", "setting": "NCI-H2228", "value": 5810, "unit": "nM"}, {"measurement": "IC50", "setting": "HOP-62", "value": 7770, "unit": "nM"}, {"measurement": "IC50", "setting": "SUD4", "value": 1600, "unit": "nM"}, {"measurement": "IC50", "setting": "SR", "value": 6960, "unit": "nM"}, {"measurement": "IC50", "setting": "A-375", "value": 796, "unit": "nM"}, {"measurement": "IC50", "setting": "MeWo", "value": 3260, "unit": "nM"}, {"measurement": "IC50", "setting": "[12]", "value": 1490, "unit": "nM"}, {"measurement": "IC50", "setting": "OPM-2", "value": 2310, "unit": "nM"}, {"measurement": "IC50", "setting": "786-0", "value": 917, "unit": "nM"}, {"measurement": "IC50", "setting": "[13]", "value": 2640, "unit": "nM"}, {"measurement": "Activity", "setting": "U2OS [14]", "value": "inactive"}, {"measurement": "Activity", "setting": "HeLa [15]", "value": "Active"}, {"measurement": "Activity", "setting": "HeLa [16]", "value": "Active"}, {"measurement": "inhibition", "setting": "HeLa [17]", "value": "Active"}, {"measurement": "Activity", "setting": "A2780", "value": "Active"}, {"measurement": "Activity", "setting": "U2OS [18]", "value": "Active"}, {"measurement": "Activity", "setting": "U2OS [19]", "value": "Active"}, {"measurement": "IC50", "setting": "[20]", "value": "> 10000", "unit": "nM"}]}]}
